Calls of active or inactive are those of the source.
target: T1, Dynamin-1 (Homo sapiens) (UniProt Q05193); experiment: Inhibition of dynamin1-mediated endocytosis in human U2OS cells assessed as inhibition of Texas red-Tf uptake incubated up to 300 uM for 30 mins prior to Texas red-Tf addition measured after 8 mins by receptor-mediated endocytosis assay; assay type: cell-based
T1 sequence (whole entry): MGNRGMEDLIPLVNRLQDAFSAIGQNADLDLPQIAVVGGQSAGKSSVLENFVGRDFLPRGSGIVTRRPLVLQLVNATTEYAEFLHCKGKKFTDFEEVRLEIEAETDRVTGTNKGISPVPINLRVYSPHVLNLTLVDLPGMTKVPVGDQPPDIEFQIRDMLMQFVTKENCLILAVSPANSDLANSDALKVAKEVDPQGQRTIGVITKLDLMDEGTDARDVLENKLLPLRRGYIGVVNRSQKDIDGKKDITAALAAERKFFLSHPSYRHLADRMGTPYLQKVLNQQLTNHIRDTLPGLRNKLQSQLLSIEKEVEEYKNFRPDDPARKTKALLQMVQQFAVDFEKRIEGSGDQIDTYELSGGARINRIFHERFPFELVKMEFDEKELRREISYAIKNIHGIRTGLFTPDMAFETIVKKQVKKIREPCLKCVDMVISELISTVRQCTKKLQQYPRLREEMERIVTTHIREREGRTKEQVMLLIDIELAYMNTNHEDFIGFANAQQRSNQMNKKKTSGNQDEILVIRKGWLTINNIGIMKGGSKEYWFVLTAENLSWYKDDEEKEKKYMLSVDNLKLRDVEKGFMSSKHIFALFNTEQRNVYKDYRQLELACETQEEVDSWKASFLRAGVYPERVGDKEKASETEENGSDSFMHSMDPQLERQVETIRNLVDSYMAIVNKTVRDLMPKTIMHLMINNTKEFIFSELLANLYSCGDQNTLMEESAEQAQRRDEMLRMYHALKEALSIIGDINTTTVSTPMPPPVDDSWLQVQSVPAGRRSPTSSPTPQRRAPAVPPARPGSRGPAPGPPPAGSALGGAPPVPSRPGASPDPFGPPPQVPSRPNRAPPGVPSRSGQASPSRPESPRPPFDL

SMILES | inhibition
O=C1/C(=C/c2cc(Cl)cc(Cl)c2)SC(=S)N1Cc1ccccc1 | inactive
CCN1C(=O)/C(=C/c2cc(Cl)cc(Cl)c2)SC1=S | inactive
O=C(O)CN1C(=O)/C(=C/c2cc(Cl)cc(Cl)c2)SC1=S | inactive
O=C(O)CCN1C(=O)/C(=C/c2csc3ccc(Cl)cc23)SC1=S | inactive
O=C1NC(=S)S/C1=C\c1cnc2ccccc2n1 | inactive
C=CCN1C(=O)/C(=C/c2cc(Cl)cc(Cl)c2)SC1=S | inactive
CN(C)CCCOc1ccc(/C=C2\SC(=S)N(Cc3ccccc3)C2=O)cc1 | inactive
O=C(O)CCN1C(=O)/C(=C/c2cc(Cl)cc(Cl)c2)SC1=S | inactive

species on record: Homo sapiens; experiment: Inhibition of clathrin at 100 uM

SMILES | inhibition
CCN1C(=O)/C(=C/c2coc3c(Cl)cc(Cl)cc3c2=O)SC1=S | inactive
C=CCN1C(=O)/C(=C/c2ccc(Br)cc2)SC1=S | inactive
O=C(O)CN1C(=O)/C(=C/c2ccc3nonc3c2)SC1=S | inactive
O=C1/C(=C/c2cc(Cl)cc(Cl)c2)SC(=S)N1Cc1ccccc1 | inactive
O=C(O)CN1C(=O)/C(=C/c2ccc(-c3ccccc3)cc2)SC1=S | inactive
O=C1NC(=S)S/C1=C\c1ccc2nonc2c1 | inactive
CCN1C(=O)/C(=C/c2cc(Cl)cc(Cl)c2)SC1=S | inactive
O=C1NC(=S)S/C1=C\c1ccc2nsnc2c1 | inactive
O=C1NC(=S)S/C1=C\c1coc2c(Cl)cc(Cl)cc2c1=O | inactive
O=C(O)CCN1C(=O)/C(=C/c2ccc3nonc3c2)SC1=S | inactive
O=C(O)CN1C(=O)/C(=C/c2cc(Cl)cc(Cl)c2)SC1=S | inactive
O=C(O)CN1C(=O)/C(=C/c2cnc3ccccc3n2)SC1=S | inactive
O=C1/C(=C/C2=Cc3ccccc3OC2)SC(=S)N1Cc1ccccc1 | inactive
CN(C)CCCOc1ccc(/C=C2\SC(=S)N(CC(=O)O)C2=O)cc1 | inactive
O=C1NC(=S)S/C1=C\c1cc(Cl)cc(Cl)c1 | inactive
C=CCN1C(=O)/C(=C/c2csc3ccc(Cl)cc23)SC1=S | inactive
O=C1/C(=C/c2ccc3nonc3c2)SC(=S)N1Cc1ccccc1 | inactive
O=C(O)CCN1C(=O)/C(=C/c2csc3ccc(Cl)cc23)SC1=S | inactive
CCN1C(=O)/C(=C/C2=Cc3ccccc3OC2)SC1=S | inactive
O=C(O)CN1C(=O)/C(=C/c2csc3ccc(Cl)cc23)SC1=S | inactive

SMILES | inhibition
C=CCN1C(=O)/C(=C/c2coc3c(Cl)cc(Cl)cc3c2=O)SC1=S | inactive
O=C1NC(=S)S/C1=C\c1cnc2ccccc2n1 | inactive
O=C1/C(=C/c2coc3c(Cl)cc(Cl)cc3c2=O)SC(=S)N1Cc1ccccc1 | inactive
O=C1/C(=C/c2cnc3ccccc3n2)SC(=S)N1Cc1ccccc1 | inactive
O=C1NC(=S)S/C1=C\C1=Cc2ccccc2OC1 | inactive
O=C(O)CCN1C(=O)/C(=C/C2=Cc3ccccc3OC2)SC1=S | inactive
CCN1C(=O)/C(=C/c2cnc3ccccc3n2)SC1=S | inactive
CCN1C(=O)/C(=C/c2ccc(Br)cc2)SC1=S | inactive
C=CCN1C(=O)/C(=C/c2cc(Cl)cc(Cl)c2)SC1=S | inactive
C=CCN1C(=O)/C(=C/c2ccc(-c3ccccc3)cc2)SC1=S | inactive
O=C1/C(=C/c2ccc3nsnc3c2)SC(=S)N1Cc1ccccc1 | inactive
C=CCN1C(=O)/C(=C/c2ccc(OCCCN(C)C)cc2)SC1=S | inactive
CN(C)CCCOc1ccc(/C=C2\SC(=S)NC2=O)cc1 | inactive
O=C(O)CN1C(=O)/C(=C/c2ccc(Br)cc2)SC1=S | inactive
C=CCN1C(=O)/C(=C/c2ccc3nonc3c2)SC1=S | inactive
C=CCN1C(=O)/C(=C/c2cnc3ccccc3n2)SC1=S | inactive
CCN1C(=O)/C(=C/c2ccc(OCCCN(C)C)cc2)SC1=S | inactive
C=CCN1C(=O)/C(=C/C2=Cc3ccccc3OC2)SC1=S | inactive
CN(C)CCCOc1ccc(/C=C2\SC(=S)N(Cc3ccccc3)C2=O)cc1 | inactive
O=C(O)CN1C(=O)/C(=C/C2=Cc3ccccc3OC2)SC1=S | inactive

SMILES | inhibition
CCN1C(=O)/C(=C/c2ccc3nsnc3c2)SC1=S | inactive
O=C1NC(=S)S/C1=C\c1csc2ccc(Cl)cc12 | inactive
O=C1/C(=C/c2ccc(Br)cc2)SC(=S)N1Cc1ccccc1 | inactive
O=C(O)CCN1C(=O)/C(=C/c2ccc(-c3ccccc3)cc2)SC1=S | inactive
O=C1/C(=C/c2csc3ccc(Cl)cc23)SC(=S)N1Cc1ccccc1 | inactive
O=C1NC(=S)S/C1=C\c1ccc(Br)cc1 | inactive
O=C(O)CCN1C(=O)/C(=C/c2coc3c(Cl)cc(Cl)cc3c2=O)SC1=S | inactive
O=C(O)CCN1C(=O)/C(=C/c2ccc3nsnc3c2)SC1=S | inactive
O=C1/C(=C/c2ccc(-c3ccccc3)cc2)SC(=S)N1Cc1ccccc1 | inactive
O=C(O)CN1C(=O)/C(=C/c2coc3c(Cl)cc(Cl)cc3c2=O)SC1=S | inactive
O=C1NC(=S)S/C1=C\c1ccc(-c2ccccc2)cc1 | inactive
CCN1C(=O)/C(=C/c2ccc(-c3ccccc3)cc2)SC1=S | inactive
O=C(O)CN1C(=O)/C(=C/c2ccc3nsnc3c2)SC1=S | inactive
CCN1C(=O)/C(=C/c2csc3ccc(Cl)cc23)SC1=S | inactive
CCN1C(=O)/C(=C/c2ccc3nonc3c2)SC1=S | inactive
CN(C)CCCOc1ccc(/C=C2\SC(=S)N(CCC(=O)O)C2=O)cc1 | inactive
O=C(O)CCN1C(=O)/C(=C/c2cnc3ccccc3n2)SC1=S | inactive
O=C(O)CCN1C(=O)/C(=C/c2cc(Cl)cc(Cl)c2)SC1=S | inactive
O=C(O)CCN1C(=O)/C(=C/c2ccc(Br)cc2)SC1=S | inactive
C=CCN1C(=O)/C(=C/c2ccc3nsnc3c2)SC1=S | inactive

target: not listed separately; experiment: Inhibition of sheep dynamin 1 GTPase activity after 30 mins by malachite-green method; design: species or system Ovis aries

SMILES | IC50
CCN1C(=O)/C(=C/c2coc3c(Cl)cc(Cl)cc3c2=O)SC1=S | 5.1 µM
O=C1/C(=C/c2cc(Cl)cc(Cl)c2)SC(=S)N1Cc1ccccc1 | 50 µM
O=C(O)CN1C(=O)/C(=C/c2ccc(-c3ccccc3)cc2)SC1=S | 73 µM
O=C1NC(=S)S/C1=C\c1ccc2nonc2c1 | 7.4 µM
CCN1C(=O)/C(=C/c2cc(Cl)cc(Cl)c2)SC1=S | 3.1 µM
O=C1NC(=S)S/C1=C\c1coc2c(Cl)cc(Cl)cc2c1=O | 24 µM
O=C(O)CN1C(=O)/C(=C/c2cc(Cl)cc(Cl)c2)SC1=S | 5.5 µM
O=C(O)CN1C(=O)/C(=C/c2cnc3ccccc3n2)SC1=S | > 100 µM
O=C1NC(=S)S/C1=C\c1cc(Cl)cc(Cl)c1 | 7.5 µM
O=C1/C(=C/c2ccc3nonc3c2)SC(=S)N1Cc1ccccc1 | 53 µM
O=C(O)CCN1C(=O)/C(=C/c2csc3ccc(Cl)cc23)SC1=S | 48 µM
O=C(O)CN1C(=O)/C(=C/c2csc3ccc(Cl)cc23)SC1=S | 12.3 µM
C=CCN1C(=O)/C(=C/c2coc3c(Cl)cc(Cl)cc3c2=O)SC1=S | > 100 µM
O=C1NC(=S)S/C1=C\c1cnc2ccccc2n1 | 43 µM
O=C1/C(=C/c2coc3c(Cl)cc(Cl)cc3c2=O)SC(=S)N1Cc1ccccc1 | 7.4 µM
O=C1NC(=S)S/C1=C\C1=Cc2ccccc2OC1 | 90 µM
O=C(O)CCN1C(=O)/C(=C/C2=Cc3ccccc3OC2)SC1=S | 23.5 µM
C=CCN1C(=O)/C(=C/c2cc(Cl)cc(Cl)c2)SC1=S | 31 µM
C=CCN1C(=O)/C(=C/c2ccc(OCCCN(C)C)cc2)SC1=S | 3.6 µM
O=C(O)CN1C(=O)/C(=C/c2ccc(Br)cc2)SC1=S | > 100 µM
CCN1C(=O)/C(=C/c2ccc(OCCCN(C)C)cc2)SC1=S | 6.4 µM
CN(C)CCCOc1ccc(/C=C2\SC(=S)N(Cc3ccccc3)C2=O)cc1 | 22 µM
O=C1NC(=S)S/C1=C\c1csc2ccc(Cl)cc12 | 5.5 µM
O=C1/C(=C/c2ccc(Br)cc2)SC(=S)N1Cc1ccccc1 | 134 µM
O=C(O)CCN1C(=O)/C(=C/c2ccc(-c3ccccc3)cc2)SC1=S | 42 µM
O=C(O)CCN1C(=O)/C(=C/c2coc3c(Cl)cc(Cl)cc3c2=O)SC1=S | 10 µM
O=C(O)CCN1C(=O)/C(=C/c2ccc3nsnc3c2)SC1=S | > 100 µM
O=C(O)CN1C(=O)/C(=C/c2coc3c(Cl)cc(Cl)cc3c2=O)SC1=S | 3.4 µM
O=C(O)CCN1C(=O)/C(=C/c2cc(Cl)cc(Cl)c2)SC1=S | 4.4 µM
O=C(O)CCN1C(=O)/C(=C/c2ccc(Br)cc2)SC1=S | 9 µM

species on record: Ovis aries; experiment: Inhibition of sheep dynamin 1 GTPase activity up to 300 uM after 30 mins by malachite-green method

SMILES | inhibition
C=CCN1C(=O)/C(=C/c2ccc(Br)cc2)SC1=S | inactive
O=C(O)CN1C(=O)/C(=C/c2ccc3nonc3c2)SC1=S | inactive
O=C1NC(=S)S/C1=C\c1ccc2nsnc2c1 | inactive
O=C(O)CCN1C(=O)/C(=C/c2ccc3nonc3c2)SC1=S | inactive
O=C1/C(=C/C2=Cc3ccccc3OC2)SC(=S)N1Cc1ccccc1 | inactive
CN(C)CCCOc1ccc(/C=C2\SC(=S)N(CC(=O)O)C2=O)cc1 | inactive
C=CCN1C(=O)/C(=C/c2csc3ccc(Cl)cc23)SC1=S | inactive
CCN1C(=O)/C(=C/C2=Cc3ccccc3OC2)SC1=S | inactive
O=C1/C(=C/c2cnc3ccccc3n2)SC(=S)N1Cc1ccccc1 | inactive
CCN1C(=O)/C(=C/c2cnc3ccccc3n2)SC1=S | inactive
CCN1C(=O)/C(=C/c2ccc(Br)cc2)SC1=S | inactive
C=CCN1C(=O)/C(=C/c2ccc(-c3ccccc3)cc2)SC1=S | inactive
O=C1/C(=C/c2ccc3nsnc3c2)SC(=S)N1Cc1ccccc1 | inactive
CN(C)CCCOc1ccc(/C=C2\SC(=S)NC2=O)cc1 | inactive
C=CCN1C(=O)/C(=C/c2ccc3nonc3c2)SC1=S | inactive
C=CCN1C(=O)/C(=C/c2cnc3ccccc3n2)SC1=S | inactive
C=CCN1C(=O)/C(=C/C2=Cc3ccccc3OC2)SC1=S | inactive
O=C(O)CN1C(=O)/C(=C/C2=Cc3ccccc3OC2)SC1=S | inactive
CCN1C(=O)/C(=C/c2ccc3nsnc3c2)SC1=S | inactive
O=C1/C(=C/c2csc3ccc(Cl)cc23)SC(=S)N1Cc1ccccc1 | inactive
O=C1NC(=S)S/C1=C\c1ccc(Br)cc1 | inactive
O=C1/C(=C/c2ccc(-c3ccccc3)cc2)SC(=S)N1Cc1ccccc1 | inactive
O=C1NC(=S)S/C1=C\c1ccc(-c2ccccc2)cc1 | inactive
CCN1C(=O)/C(=C/c2ccc(-c3ccccc3)cc2)SC1=S | inactive
O=C(O)CN1C(=O)/C(=C/c2ccc3nsnc3c2)SC1=S | inactive
CCN1C(=O)/C(=C/c2csc3ccc(Cl)cc23)SC1=S | inactive
CCN1C(=O)/C(=C/c2ccc3nonc3c2)SC1=S | inactive
O=C(O)CCN1C(=O)/C(=C/c2cnc3ccccc3n2)SC1=S | inactive
C=CCN1C(=O)/C(=C/c2ccc3nsnc3c2)SC1=S | inactive
